This is an account of results in US9657034B2, “Substituted furo[3,2-c]pyridines, thieno[3,2-c]pyridines, thieno[2,3-d]pyridazines and pyrido[3,4-d]pyridazines as phosphodiesterase type 10A inhibitors” (AbbVie Deutschland GmbH & Co. KG, priority 2011, dated 2017).

Where only a bound is given, the exact number is not on record here.

One test addresses T1, PDE10A (human) (Homo sapiens, UniProt Q9Y233).
T1 construct: purchased BPS Bioscience
The test is described as follows: Measurement of PDE activity (HTRF cAMP kit), PDE10A human. It is filed as biochemical. As to conditions: Table 1. How it is done:
The recombinant PDE proteins are used in in vitro enzymatic reaction for measurement of PDE activity. These recombinant proteins, including PDE10A (human, rat and mouse PDE10) and isoforms of PDEs 1, 3, 4, and 5, were purchased from commercial vendor BPS Bioscience. The enzymatic activity of PDEs was determined by cAMP measurement kit from CisBio (IBA) using HTRF technology.
The PDE enzymatic reaction was carried out in assay buffer (20 mM Tris-HCl pH7.5, 10 mM MgCl2, 0.1% bovine serum albumin) containing enzyme and substrate. The PDE enzymes concentration ranged from 10 pM-250 pM, depending on each enzyme's specific activity. The substrate cyclic nucleotide (cAMP or cGMP) concentration used in the assay was 20 nM for PDE10, and 100 nM for other PDEs. The inhibitory effect of compound was determined by incubating various concentration of inhibitor in the enzymatic assay. Typically, compound was serial diluted in DMSO then further diluted in assay buffer. Next, the compound at varying concentration was mixed with PDE enzyme. The reaction was initiated by addition of cyclic nucleotide substrate, and incubated for 60 minutes at 29 C. The reaction was stopped by addition of lysis buffer from assay kit. The cAMP-d2 and anti-cAMP cryptate in the lysis buffer detected the level of cAMP left from the PDE hydrolysis reaction. […]
(In general: TR-FRET usually uses a lanthanide donor and a delayed reading to cut background.)

Test [1] concerns rats. As to conditions: cited from earlier work.
The subject of test [2] is rats. The following applies: cited from earlier work. The source holds these as a separate data set.
In test [3] the test system is rats. The following applies: cited from earlier work. The source holds these as a separate data set.

T1 sequence (Q9Y233 whole entry): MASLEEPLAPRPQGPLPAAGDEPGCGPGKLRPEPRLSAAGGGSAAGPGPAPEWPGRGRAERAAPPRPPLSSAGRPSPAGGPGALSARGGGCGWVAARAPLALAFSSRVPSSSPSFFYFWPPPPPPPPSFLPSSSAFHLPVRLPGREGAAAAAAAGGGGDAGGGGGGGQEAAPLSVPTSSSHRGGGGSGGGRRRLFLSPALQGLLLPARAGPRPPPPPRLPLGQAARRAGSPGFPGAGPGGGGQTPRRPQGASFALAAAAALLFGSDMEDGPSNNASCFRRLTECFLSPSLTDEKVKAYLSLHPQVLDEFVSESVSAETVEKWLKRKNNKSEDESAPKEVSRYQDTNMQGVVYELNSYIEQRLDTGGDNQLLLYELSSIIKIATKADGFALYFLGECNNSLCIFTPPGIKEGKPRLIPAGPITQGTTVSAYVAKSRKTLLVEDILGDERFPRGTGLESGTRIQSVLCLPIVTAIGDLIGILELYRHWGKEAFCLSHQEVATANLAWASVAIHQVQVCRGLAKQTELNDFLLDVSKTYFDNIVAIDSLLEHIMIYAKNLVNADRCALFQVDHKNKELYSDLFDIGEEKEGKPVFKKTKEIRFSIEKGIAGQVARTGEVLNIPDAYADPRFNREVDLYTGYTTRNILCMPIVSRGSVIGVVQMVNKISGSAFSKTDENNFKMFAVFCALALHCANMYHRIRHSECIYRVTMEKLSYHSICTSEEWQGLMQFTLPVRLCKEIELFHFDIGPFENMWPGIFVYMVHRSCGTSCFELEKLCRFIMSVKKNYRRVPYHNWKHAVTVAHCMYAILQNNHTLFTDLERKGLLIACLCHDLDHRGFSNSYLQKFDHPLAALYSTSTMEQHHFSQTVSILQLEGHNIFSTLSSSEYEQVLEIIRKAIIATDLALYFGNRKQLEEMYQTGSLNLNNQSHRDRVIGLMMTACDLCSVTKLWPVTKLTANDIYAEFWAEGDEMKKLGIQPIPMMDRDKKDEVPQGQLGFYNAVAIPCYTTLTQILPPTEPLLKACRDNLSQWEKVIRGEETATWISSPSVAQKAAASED

On PDE10A (human), “anti 8-((3 S)-3-hydroxypiperidin-1-yl)-2-(2-(quinolin-2-yl)cyclopropyl)isoquinolin-1(2H)-one (2E)-but-2-enedioate [Example 244]” registered an IC50 of less than 0.1 µM.
Take `COc1ccc(Cc2nccc3cc(OC)c(OC)cc23)cc1OC` [Papaverine, papaverine]: the “hyperactivity in rats induced by PCP” value in the test with rats [1] is recorded as “reduced hyperactivity”. Also, the “catalepsy on its own” value in the test with rats [2] (papaverine alone) was “did not cause catalepsy”. Further, the “cataleptic effect of the D2 receptor antagonist haloperidol” value in the test with rats [2] (together with haloperidol) is on record as “potentiated the cataleptic effect”. Also, the “reduction of amphetamine-induced hyperactivity” value in the test with rats [3] is “insignificant”.
With `O=c1c2cccc(-c3cccc(O)c3)c2cnn1CCc1ccc2ccccc2n1` [Example 220, 5-(3-hydroxyphenyl)-2-[2-(quinolin-2-yl)ethyl]phthalazin-1(2H)-one], the IC50 on PDE10A (human) was less than 0.1 µM.

One may read the IC50 as the concentration that gives 50% inhibition. A lower IC50 goes with greater potency in that assay.
